The record followed here is US20230285516A1 (priority 2020, published 2023).

The test system of test [1] is TNF-α. Kind of test: TNF-α in co-culture supernatants (ELISA). Particulars: RA or OA co-cultures, day 7 of culture. In kind it is cell-based, human. The protocol:
(§1) Cartilage and synovium co-cultures were performed from 9 patients with RA and 8 patients with OA who underwent hip or knee replacement (Table 1). Joint tissue was cultured with (a) RPMI (control), (b) 1% type I polymerized collagen, for 7 days. The supernatants and tissues of days 1 and 7 were […] collected. In the culture supernatants the concentration of IL-1β, IL-8, IL-10, IL-12, TNF-α and IFN-γ was quantified by ELISA and the results were normalized with total protein concentration. The expression of IL-1β and TNF-α was evaluated using histochemistry.
FIG. 4. Effect of type I polymerized collagen on TNF-α expression in supernatants of cartilage and synovial tissue co-cultures from patients with rheumatoid arthritis (RA) or osteoarthritis (OA). The data represent the mean±SD of 9 co-cultures of cartilage and synovium from patients with RA and of 8 co-cultures of patients with OA. Each culture was performed in triplicate for each condition. The results were normalized with the total protein concentration of the supernatant, determined by the Folin-Löwry micromethod. AR: left panel. OA: panel on the right. Basal: tissue in basal conditions. […] No detectable levels of IL-12 and IFN-γ were determined in the cultures.

A further test relates to IL-10. Kind of test: IL-10 in co-culture supernatants (ELISA). The following applies: RA or OA co-cultures, day 7 vs. day 1 of culture. In kind it is cell-based, human. How it is done: as §1
FIG. 6. Effect of type I polymerized collagen on IL-10 expression in supernatants of cartilage and synovial tissue co-cultures from patients with rheumatoid arthritis (RA) or osteoarthritis (OA). The data represent the mean±SD of 9 co-cultures of cartilage and synovium from patients with RA and of 8 co-cultures of patients with OA. Each culture was performed in triplicate for each condition. The results were normalized with the total protein concentration of the supernatant, determined by the Folin-Lowry micromethod. AR: left panel. OA: panel on the right. Basal: tissue in basal conditions.

Test [2] has as its system TNF-α. Kind of test: TNF-α gene expression in co-cultured tissues (RT-PCR). Format: cell-based, human. The following applies: vs control. The source says: (§2) FIG. 7. Effect of type I polymerized collagen on the gene expression of pro- and anti-inflammatory cytokines and factors in the tissues of cartilage and synovial tissue co-cultures of patients with rheumatoid arthritis (RA). (A) Quantification of TNF-α, IL-6 and IL-10 gene expression and (B) Quantification of IL-23 and Foxp3 gene expression by RT-PCR in synovial membrane tissues and cartilage co-cultured for 7 days. The bars show the mean±SD of the transcript levels of the samples normalized through the expression of the housekeeping gene GADPH determined by 2ΔΔCt. The data represent the mean±SD of 9 cartilage and synovial co-cultures from RA patients. Each culture was performed in triplicate for each condition. Basal: tissue in basal conditions.
FIG. 8. Effect of type I polymerized collagen on the gene expression of pro- and anti-inflammatory cytokines and factors in the tissues of cartilage and synovial co-cultures of patients with Osteoarthritis (OA). (A) Quantification of IL-1β, INF-α, IL-6 and IL-10 gene expression, (B) IL-23 and Foxp3 by RT-PCR in co-cultured cartilage and synovial membrane tissues for 7 days. The bars show the mean±SD of the transcript levels of the samples normalized through the expression of the housekeeping gene GADPH determined by 2ΔΔCt. The data represent the mean±SD of 8 co-cultures from patients with OA. […]

The subject of another test is IL-23. Description: IL-23 gene expression in co-cultured tissues (RT-PCR). In kind it is cell-based, human. Particulars: co-cultures from patients with RA, vs control.
Source text: as §2

Test [3] relates to dendritic (CD4−/CD11c+) cells. Description: FACS of spleen CD11c+ dendritic cells in CIA models. Format: in vivo, mice. The following applies: CIA model. How it is done: Early Arthritis Model. Fifty mice with the same characteristics were immunized at the base of the tail with 100 μg of chicken type II collagen emulsified in complete Freund's adjuvant. The boost was applied on day 21 at the base of the tail with 100 μg of type II collagen emulsified with Freund's incomplete adjuvant. On the same boosting day, the treatments (a-d) were applied every week for six weeks. Three animals were euthanized in the sixth week and three in the thirteenth week. The spleen, lymph nodes, joint tissue, liver, lungs, kidneys and heart were obtained in order to assess the inflammatory infiltrate, the predominant cell populations and the expression of pro- and anti-inflammatory cytokines.
Established Arthritis Model. Arthritis was induced as in the previous model in 50 mice and the treatments were applied intramuscularly, after 2 weeks of the boost, every week for 6 weeks. Three animals were euthanized in the eighth week and three in the fifteenth week. The spleen, lymph nodes, joint tissue, liver, lungs, kidneys and heart were obtained in order to assess the inflammatory infiltrate, the predominant cell populations and the expression of pro- and anti-inflammatory cytokines.
Cytometric evaluation. […]
FIG. 12. […] The expression of CD11c was detected by flow cytometry. The results are representative of 6 mice analyzed in each group. […]

A further test deals with NF-κB. Description: Ex vivo NF-κBp65 and IκBα expression in splenocytes, CIA models. On the set-up: species or system mice. Particulars: early and long-standing arthritis. How it is done: We infer that the mechanism of action of type I polymerized collagen could be given through the regulation of the transcription factor NF-κB and AP-1. In particular, NF-κB regulates the expression of pro-inflammatory enzymes, cytokines, chemokines, immunoreceptors, and cell adhesion molecules, as well as apoptosis. In the light of this knowledge, the expression of NF-κBp65 and its inhibitor IκBα in splenocytes were analyzed ex vivo (FIG. 12).
FIG. 12. Effect of type I polymerized collagen in the early (preventive) and long-standing (late or palliative) arthritis model on ex vivo NF-κB and IκB-α expression in splenocytes. (A) Spleen cells from early arthritis model mice at first sacrifice. (B) Splenocytes obtained immediately after the second sacrifice. (C) Spleen cells from long-standing arthritis model mice at first sacrifice. (D) Splenocytes obtained immediately after the second sacrifice. The intracellular levels of NF-κBp65 and IκBα cells were detected by flow cytometry. The results are representative of 6 mice analyzed in each group. The horizontal dotted line represents the average normal values obtained from mice (n=3) without CIA. Data represent mean±SEM. *p<0.05.

In the case of “collagen-polyvinylpyrrolidone [type I polymerized collagen]”, the “expression of TNF-α vs. the controls in the supernatants” value with TNF-α [1] was “decreased”. For the same substance, the “increase of IL-10 concentration in the supernatants” value in the test with IL-10 is at least 10 times. Further, the “gene expression of TNF-α” value with TNF-α [2] (co-cultures from patients with OA) was “negative regulation”. Further, the “transcription of TNF-α gene” value with TNF-α [2] (co-cultures from patients with RA) is “negatively regulated”. Further, the “transcription of IL-23 gene” value in the test with IL-23 is listed as “negatively regulated”. Further, in test [3], the “CD11c+ population (antigenic presentation)” value is reported as “decrease”. Besides, in the test with NF-κB, the “percentage of NF-kB+ complexes with its inhibitor IκBα+ in splenocytes” value was “increased to a statistically significant level”.
